# Tests used:
# crabgrass = test: Test B pre/postemergence crabgrass; type: in vivo, Digitaria sanguinalis
# Procedure, shortened: (§1)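 Test chemicals in a non-phytotoxic solvent mixture with surfactant were sprayed preemergence onto planted seeds and postemergence onto plants 2 to 18 cm tall (1- to 4-leaf stage). After twelve to sixteen days in a greenhouse, injury was visually rated against untreated controls from 0 (no effect) to 10 (complete control).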
# blackgrass = test: Test B pre/postemergence blackgrass; type: in vivo, Alopecurus myosuroides
# Procedure, shortened: as §1
# wild oat = test: Test B pre/postemergence wild oat; type: in vivo, Avena fatua
# Procedure, shortened: as §1
# sugar beet = test: Test B pre/postemergence sugar beet; type: in vivo, Beta vulgaris
# Procedure, shortened: as §1
# giant foxtail = test: Test B pre/postemergence giant foxtail; type: in vivo, Setaria faberii
# Procedure, shortened: as §1
# velvetleaf = test: Test B pre/postemergence velvetleaf; type: in vivo, Abutilon theophrasti
# Procedure, shortened: as §1
# corn = test: Test B pre/postemergence corn; type: in vivo, Zea mays
# Procedure, shortened: as §1
# wheat = test: Test B pre/postemergence wheat; type: in vivo, Triticum aestivum
# Procedure, shortened: as §1
# surinam grass = test: Test B pre/postemergence surinam grass; type: in vivo, Brachiaria decumbens
# Procedure, shortened: as §1
# bedstraw = test: Test B pre/postemergence bedstraw; type: in vivo, Galium aparine
# Procedure, shortened: as §1
# rape = test: Test B pre/postemergence rape; type: in vivo, Brassica napus
# Procedure, shortened: as §1
# pigweed = test: Test B pre/postemergence pigweed; type: in vivo, Amaranthus retroflexus
# Procedure, shortened: as §1
# cocklebur = test: Test B pre/postemergence cocklebur; type: in vivo, Xanthium strumarium
# Procedure, shortened: as §1
# soybean = test: Test B pre/postemergence soybean; type: in vivo, Glycine max
# Procedure, shortened: as §1
# purple nutsedge = test: Test B pre/postemergence purple nutsedge; type: in vivo, Cyperus rotundus
# Procedure, shortened: as §1
# morningglory = test: Test B pre/postemergence morningglory; type: in vivo, Ipomoea hederacea
# Procedure, shortened: as §1
# [1] = Postemergence, Rate 62 g/ha, scale 0 to 10, 0 is no effect, 10 is complete control
# [2] = Postemergence, Rate 125 g/ha, scale of 0 to 10 where 0 is no effect and 10 is complete control
# [3] = Preemergence, Rate 125 g/ha, scale of 0 to 10 where 0 is no effect and 10 is complete control
# [4] = Preemergence, Rate 250 g/ha, scale 0 (no effect) to 10 (complete control)
# [5] = Rate 62 g/ha, Preemergence, scale 0 to 10
# [6] = Rate 250 g/ha, Postemergence, scale 0 to 10, 0 is no effect, 10 is complete control
# [7] = Rate 500 g/ha, Postemergence, scale 0 to 10, 0 is no effect, 10 is complete control
# [8] = Rate 500 g/ha, Preemergence, scale 0 to 10 (0 no effect, 10 complete control)
smiles,measurement,setting,value
CCC(C)n1c(=O)on(C(=O)N(c2ccc(F)cc2)C(C)C)c1=O (centres unmarked) [Compound 751],"Plant response rating, Crabgrass",crabgrass; [1],7
same,Crabgrass plant response rating,crabgrass; [2],8
same,"Plant response rating, Crabgrass",crabgrass; [3],10
same,Crabgrass plant response rating,crabgrass; [4],10
same,Crabgrass plant response rating,crabgrass; [5],10
same,Crabgrass plant response rating,crabgrass; [6],9
same,Crabgrass plant response rating,crabgrass; [7],9
same,Crabgrass plant response rating,crabgrass; [8],10
same,"Plant response rating, Blackgrass",blackgrass; [1],6
same,Blackgrass plant response rating,blackgrass; [2],6
same,"Plant response rating, Blackgrass",blackgrass; [3],10
same,Blackgrass plant response rating,blackgrass; [4],10
same,Blackgrass plant response rating,blackgrass; [5],9
same,Blackgrass plant response rating,blackgrass; [6],6
same,Blackgrass plant response rating,blackgrass; [7],7
same,Blackgrass plant response rating,blackgrass; [8],10
same,"Plant response rating, Wild oats",wild oat; [1],0
same,Wild oats plant response rating,wild oat; [2],0
same,"Plant response rating, Wild oats",wild oat; [3],8
same,Wild oats plant response rating,wild oat; [4],10
same,Wild oats plant response rating,wild oat; [5],3
same,Wild oats plant response rating,wild oat; [6],3
same,Wild oats plant response rating,wild oat; [7],5
same,Wild oats plant response rating,wild oat; [8],10
same,"Plant response rating, Sugarbeets",sugar beet; [1],3
same,Sugarbeets plant response rating,sugar beet; [2],3
same,"Plant response rating, Sugarbeets",sugar beet; [3],2
same,Sugarbeets plant response rating,sugar beet; [4],5
same,Sugarbeets plant response rating,sugar beet; [5],2
same,Sugarbeets plant response rating,sugar beet; [6],3
same,Sugarbeets plant response rating,sugar beet; [7],3
same,Sugarbeets plant response rating,sugar beet; [8],7
same,"Plant response rating, Giant foxtail",giant foxtail; [1],8
same,Giant foxtail plant response rating,giant foxtail; [2],9
same,"Plant response rating, Giant foxtail",giant foxtail; [3],10
same,Giant foxtail plant response rating,giant foxtail; [4],10
same,Giant foxtail plant response rating,giant foxtail; [5],10
same,Giant foxtail plant response rating,giant foxtail; [6],9
same,Giant foxtail plant response rating,giant foxtail; [7],9
same,Giant foxtail plant response rating,giant foxtail; [8],10
same,"Plant response rating, Velvetleaf",velvetleaf; [1],0
same,Velvetleaf plant response rating,velvetleaf; [2],2
same,"Plant response rating, Velvetleaf",velvetleaf; [3],8
same,Velvetleaf plant response rating,velvetleaf; [4],8
same,Velvetleaf plant response rating,velvetleaf; [5],7
same,Velvetleaf plant response rating,velvetleaf; [6],2
same,Velvetleaf plant response rating,velvetleaf; [7],3
same,Velvetleaf plant response rating,velvetleaf; [8],8
same,"Plant response rating, Corn",corn; [1],0
same,Corn plant response rating,corn; [2],0
same,"Plant response rating, Corn",corn; [3],4
same,Corn plant response rating,corn; [4],8
same,Corn plant response rating,corn; [5],0
same,Corn plant response rating,corn; [6],0
same,Corn plant response rating,corn; [7],2
same,Corn plant response rating,corn; [8],9
same,"Plant response rating, Wheat",wheat; [1],0
same,Wheat plant response rating,wheat; [2],0
same,"Plant response rating, Wheat",wheat; [3],4
same,Wheat plant response rating,wheat; [4],5
same,Wheat plant response rating,wheat; [5],0
same,Wheat plant response rating,wheat; [6],5
same,Wheat plant response rating,wheat; [7],3
same,Wheat plant response rating,wheat; [8],10
same,"Plant response rating, B. signalgrass",surinam grass; [1],3
same,B. signalgrass plant response rating,surinam grass; [2],3
same,B. signalgrass plant response rating,surinam grass; [6],6
same,B. signalgrass plant response rating,surinam grass; [7],7
same,"Plant response rating, Bedstraw",bedstraw; [1],0
same,Bedstraw plant response rating,bedstraw; [2],5
same,"Plant response rating, Bedstraw",bedstraw; [3],2
same,Bedstraw plant response rating,bedstraw; [4],9
same,Bedstraw plant response rating,bedstraw; [7],7
same,Bedstraw plant response rating,bedstraw; [8],10
same,"Plant response rating, Rape",rape; [1],2
same,Rape plant response rating,rape; [2],3
same,"Plant response rating, Rape",rape; [3],6
same,Rape plant response rating,rape; [4],7
same,Rape plant response rating,rape; [5],4
same,Rape plant response rating,rape; [6],5
same,Rape plant response rating,rape; [7],5
same,Rape plant response rating,rape; [8],9
same,Redroot pigweed plant response rating,pigweed; [2],6
same,"Plant response rating, Redroot pigweed",pigweed; [3],10
same,Redroot pigweed plant response rating,pigweed; [4],10
same,Redroot pigweed plant response rating,pigweed; [5],10
same,Redroot pigweed plant response rating,pigweed; [6],9
same,Redroot pigweed plant response rating,pigweed; [7],9
same,Redroot pigweed plant response rating,pigweed; [8],10
same,"Plant response rating, Cocklebur",cocklebur; [1],0
same,Cocklebur plant response rating,cocklebur; [2],2
same,"Plant response rating, Cocklebur",cocklebur; [3],0
same,Cocklebur plant response rating,cocklebur; [4],0
same,Cocklebur plant response rating,cocklebur; [5],0
same,Cocklebur plant response rating,cocklebur; [6],2
same,Cocklebur plant response rating,cocklebur; [7],2
same,Cocklebur plant response rating,cocklebur; [8],0
same,"Plant response rating, Soybean",soybean; [1],2
same,Soybean plant response rating,soybean; [2],3
same,"Plant response rating, Soybean",soybean; [3],0
same,Soybean plant response rating,soybean; [4],7
same,Soybean plant response rating,soybean; [5],0
same,Soybean plant response rating,soybean; [6],7
same,Soybean plant response rating,soybean; [7],7
same,Soybean plant response rating,soybean; [8],9
same,"Plant response rating, Nutsedge",purple nutsedge; [1],0
same,Nutsedge plant response rating,purple nutsedge; [2],0
same,"Plant response rating, Nutsedge",purple nutsedge; [3],0
same,Nutsedge plant response rating,purple nutsedge; [4],0
same,Nutsedge plant response rating,purple nutsedge; [5],0
same,Nutsedge plant response rating,purple nutsedge; [6],0
same,Nutsedge plant response rating,purple nutsedge; [7],10
same,Nutsedge plant response rating,purple nutsedge; [8],0
same,"Plant response rating, Morningglory",morningglory; [1],8
same,Morningglory plant response rating,morningglory; [2],8
same,"Plant response rating, Morningglory",morningglory; [3],5
same,Morningglory plant response rating,morningglory; [4],5
same,Morningglory plant response rating,morningglory; [5],0
same,Morningglory plant response rating,morningglory; [6],8
same,Morningglory plant response rating,morningglory; [7],9
same,Morningglory plant response rating,morningglory; [8],5
COC(CCl)n1c(=O)on(C(=O)N(c2ccc(F)cc2F)C(C)C)c1=O (centres unmarked) [Compound 737],"Plant response rating, Crabgrass",crabgrass; [3],9
same,Crabgrass plant response rating,crabgrass; [4],10
same,Crabgrass plant response rating,crabgrass; [5],8
same,Crabgrass plant response rating,crabgrass; [8],10
same,"Plant response rating, Blackgrass",blackgrass; [3],9
same,Blackgrass plant response rating,blackgrass; [4],9
same,Blackgrass plant response rating,blackgrass; [5],6
same,Blackgrass plant response rating,blackgrass; [8],10
same,"Plant response rating, Wild oats",wild oat; [3],6
same,Wild oats plant response rating,wild oat; [4],8
same,Wild oats plant response rating,wild oat; [5],5
same,Wild oats plant response rating,wild oat; [8],9
same,"Plant response rating, Sugarbeets",sugar beet; [3],5
same,Sugarbeets plant response rating,sugar beet; [4],6
same,Sugarbeets plant response rating,sugar beet; [5],1
same,Sugarbeets plant response rating,sugar beet; [8],6
same,"Plant response rating, Giant foxtail",giant foxtail; [3],10
same,Giant foxtail plant response rating,giant foxtail; [4],10
same,Giant foxtail plant response rating,giant foxtail; [5],9
same,Giant foxtail plant response rating,giant foxtail; [8],10
same,"Plant response rating, Velvetleaf",velvetleaf; [3],0
same,Velvetleaf plant response rating,velvetleaf; [4],4
same,Velvetleaf plant response rating,velvetleaf; [5],0
same,Velvetleaf plant response rating,velvetleaf; [8],5
same,"Plant response rating, Corn",corn; [3],2
same,Corn plant response rating,corn; [4],3
same,Corn plant response rating,corn; [5],0
same,Corn plant response rating,corn; [8],6
same,"Plant response rating, Wheat",wheat; [3],0
same,Wheat plant response rating,wheat; [4],2
same,Wheat plant response rating,wheat; [5],0
same,Wheat plant response rating,wheat; [8],2
same,B. signalgrass plant response rating,"surinam grass; Preemergence, Rate 62 g/ha, scale of 0 to 10 where 0 is no effect and 10 is complete control",4
same,"Plant response rating, B. signalgrass",surinam grass; [3],4
same,B. signalgrass plant response rating,surinam grass; [4],8
same,B. signalgrass plant response rating,surinam grass; [8],9
same,"Plant response rating, Bedstraw",bedstraw; [3],0
same,Bedstraw plant response rating,bedstraw; [4],0
same,Bedstraw plant response rating,bedstraw; [5],0
same,Bedstraw plant response rating,bedstraw; [8],0
same,"Plant response rating, Rape",rape; [3],0
same,Rape plant response rating,rape; [4],5
same,Rape plant response rating,rape; [5],0
same,Rape plant response rating,rape; [8],6
same,"Plant response rating, Redroot pigweed",pigweed; [3],3
same,Redroot pigweed plant response rating,pigweed; [4],6
same,Redroot pigweed plant response rating,pigweed; [5],2
same,Redroot pigweed plant response rating,pigweed; [8],8
same,"Plant response rating, Cocklebur",cocklebur; [3],0
same,Cocklebur plant response rating,cocklebur; [4],0
same,Cocklebur plant response rating,cocklebur; [5],0
same,Cocklebur plant response rating,cocklebur; [8],0
same,"Plant response rating, Soybean",soybean; [3],0
same,Soybean plant response rating,soybean; [4],0
same,Soybean plant response rating,soybean; [5],0
same,Soybean plant response rating,soybean; [8],0
same,"Plant response rating, Nutsedge",purple nutsedge; [3],0
same,Nutsedge plant response rating,purple nutsedge; [4],0
same,Nutsedge plant response rating,purple nutsedge; [5],0
same,Nutsedge plant response rating,purple nutsedge; [8],0
same,"Plant response rating, Morningglory",morningglory; [3],2
same,Morningglory plant response rating,morningglory; [4],2
same,Morningglory plant response rating,morningglory; [5],1
same,Morningglory plant response rating,morningglory; [8],3

# Source: US6737383B1, “Herbicidal oxadiazolidines” (priority 1999, dated 2004)
